Data on 2 compounds can be found in patent publication US20240164267A1, “GENETIC MECHANISM TO ENHANCE HEALTHY STEROLS AND HARD ENDOSPERM IN SEEDS” (Iowa State University Research Foundation, Inc., priority 2022, published 2024).

Assay [1] has as its system ZmHMGR mRNA. Briefly: Exogenous sterol feeding of maize seedlings, relative mRNA quantification of ZmHMGR. The class given is in vivo. As to conditions: for ZmHMGR mRNA: wild type W22 roots.
For assay [2], the system named is Zmcyp710a8-1 mutant root metabolites. Briefly: Exogenous stigmasterol feeding of Zmcyp710a8-1 mutant, metabolite levels in root tissue (GC/MS). The class given is in vivo, maize. As to conditions: root tissue of Zmcyp710a8-1 null mutant with exogenous stigmasterol feeding, compared with W22. From the text: Relative metabolite levels in the two maize mutants compared to their wild type are shown as fold changes in Root and Shoot. […] Asterisks indicate statistical significance by Students t-test compared to Zmcyp710a8-1. *P<0.05 **P<0.01 ***P<0.001.
To identify cellular metabolites influenced by stigmasterol, non-targeted GC/MS metabolite analysis of roots and shoots of maize Zmcyp710a8 and wild type was used. A total of 29 molecular features (13 known and 16 unknown molecular features) were identified in roots and 31 features (17 known and 14 unknown molecular features) in shoots (FIG. 7). The concentration of molecular features correlated with stigmasterol content among genotypes in maize and the features belonged to similar classes including sterol, amino acid, primary metabolism, and unknown features in roots and shoots (FIG. 7).
Since changes in metabolites among the genotypes correlated with stigmasterol content, it was reasoned that exogenous stigmasterol may reverse the metabolite levels in Zmcyp710a8-1 mutant to wild type levels.

The subject of assay [3] is ZmSMT2 mRNA. Briefly: Exogenous sterol feeding of maize seedlings, relative mRNA quantification of ZmSMT2. The assay is classed as in vivo. Conditions: for ZmSMT2 mRNA: wild type W22 roots. As to the method:
FIG. 6C-D show relative mRNA quantification of ZmHMGR and ZmSMT2 genes in Zmcyp710a8-1 background in response to various sterols (10 μM) for 4 hours in roots (FIG. 6C) and in shoots (FIG. 6D). ZmACTIN served as the reference gene for normalization. Data are means±SD. Asterisks indicate statistical significance by Students t-test compared to 0 h in FIG. 6A and to Mock in FIG. 6B, FIG. 6C, and FIG. 6D. *P<0.05 **P<0.01 ***P<0.001; ns, not significant.

[4] abbreviates: roots and shoots of Zmcyp710a8-1, 10 μM sterol, 4 hours.
Where [5] appears, read: 10 μM sterol feeding, after 4 and 8 h.

With `CC[C@H](/C=C/[C@@H](C)[C@H]1CC[C@H]2[C@@H]3CC=C4C[C@@H](O)CC[C@]4(C)[C@H]3CC[C@]12C)C(C)C` [stigmasterol], the “ZmHMGR mRNA levels” value in assay [1] (setting [4]) is recorded as “higher”. The “ZmHMGR mRNA” value in assay [1] (setting [5]) is “induction”; in assay [1] (10 μM stigmasterol, after 8 h) it was “remained elevated”. Besides, the “levels of selected metabolites (sitosterol, campesterol, myo-inositol)” value in assay [2] is “shifted the levels of sitosterol, campesterol, and myo-inositol toward W22 levels”. The “ZmSMT2 mRNA levels” value in assay [3] (setting [4]) is listed as “higher”. The “ZmSMT2 mRNA” value in assay [3] (setting [5]) is reported as “induction”; in assay [3] (10 μM stigmasterol, after 8 h) it was “slightly decreased”.
For the compound `CC[C@H](CC[C@@H](C)[C@H]1CC[C@H]2[C@@H]3CC=C4C[C@@H](O)CC[C@]4(C)[C@H]3CC[C@]12C)C(C)C` [sitosterol], the “ZmHMGR mRNA” value in assay [1] (setting [5]) is recorded as “did not have a significant impact”. Further, the “ZmSMT2 mRNA” value in assay [3] (setting [5]) is given as “did not have a significant impact”.
